# According to patent US20090203737A1, “Pyrrole Derivatives as Positive Allosteric Modulators of Metabotropic Receptors” (priority 2005, published 2009):
# Legend:
# mGluR5 [1] = molecular target: T1, mGluR5 (Rattus norvegicus, UniProt P31424); conditions: Liu et al (2006), Zhang et al (2005); cited from earlier work
# T1 construct: positive allosteric modulators of mGluR5 receptors in native preparations; endogenous in cells; host or cells: primary cortical astrocytes from Sprague-Dawley rat embryos (E16-19)
# rat mGluR5 receptor = molecular target: T2, rat mGluR5 receptor (Rattus norvegicus, UniProt P31424); assay: mGluR5 assay on HEK-expressing rat mGluR5 (fluorescent cell based Ca2+ mobilization assay); conditions: for activation of rat mGluR5 receptors: HEK-rat mGluR5 cell line, without co-addition of glutamate or mGluR5 agonist; for EC50: HEK-293 cells stably expressing rat mGluR5, no co-addition of glutamate, mean of at least three independent experiments in duplicate, read-out: Ca++ Flux (mean EC50)
# T2 construct: expressed in transfected cells
# Protocol: Positive functional expression of HEK-293 cells stably expressing rat mGluR5 receptor was determined by measuring intracellular Ca^2+ changes using a Fluorometric Imaging Plate Reader (FLIPR, Molecular Devices, Sunnyvale, Calif.) in response to glutamate or selective known mGluR5 agonists and antagonists. Rat mGluR5 RT-PCR products in HEK-293 cells were sequenced and found 100% identical to rat mGluR5 Genbank reference sequence (NM_017012). HEK-293 cells expressing rmGluR5 were maintained in media containing DMEM, dialyzed Fetal Bovine Serum (10%), Glutamax™ (2 mM), Penicillin (100 units/ml), Streptomycin (100 μg/ml), Geneticin (100 μg/ml) and Hygromycin-B (40 μg/ml) at 37° C./5% CO2.
# After one day of incubation, cells were washed with assay buffer containing: 142 mM NaCl, 6 mM KCl, 1 mM […], 1 mM CaCl2, 20 mM HEPES, 1 g/L glucose, 0.125 mM sulfinpyrazone, pH 7.4. After 60 min of loading with 4 uM Fluo-4 (TefLabs, Austin, Tex.), the cells were washed three times with 50 μl of PBS Buffer and resuspended in 45 μl of assay Buffer. The plates were then transferred to a Fluorometric Imaging Plate Reader (FLIPR, Molecular Devices, Sunnyvale, Calif.) for the assessment of intracellular calcium flux. After monitoring the baseline fluorescence for 10 seconds, increasing concentrations of representative compound (from 0.01 to 60 μM) of the present invention diluted in Assay Buffer (15 μl of 4× dilutions) was added to the cell. The final DMSO concentration in the assay was 0.3%. In each experiment, fluorescence was then monitored as a function of time for 3 minutes and the data analyzed using Microsoft Excel and GraphPad Prism. Each data point was also measured two times.
# Under these experimental conditions, this HEK-rat mGluR5 cell line is able to directly detect positive allosteric modulators without the need of co-addition of glutamate or mGluR5 agonist.
# The concentration-response curves of representative compounds of the present invention were generated using the Prism GraphPad software (Graph Pad Inc, San Diego, USA). The curves were fitted to a four-parameter logistic equation:
# (Y=Bottom+(Top−Bottom)/(1+10̂((LogEC50−X)*Hill Slope)
# allowing determination of EC50 values.
# The Table 1 below represents the mean EC50 obtained from at least three independent experiments of selected molecules performed in duplicate.
# mGluR5 [2] = molecular target: T1, mGluR5; assay: mGluR5 binding assay ([3H]-MPEP, rat brain membranes); conditions: 3 nM [3H]-MPEP, 1 h at 4° C.
# Description: Activity of compounds of the invention was examined following a radioligand binding technique using whole rat brain and tritiated 2-methyl-6-(phenylethynyl)-pyridine ([^3H]-MPEP) as a ligand following similar methods than those described in Gasparini et al. (2002) Bioorg. Med. Chem. Lett. 12:407-409 and in Anderson et al. (2002) J. Pharmacol. Exp. Ther. 303 (3) 1044-1051.
# Cortices were dissected out from brains of 200-300g Sprague-Dawley rats (Charles River Laboratories, L'Arbresle, France). Tissues were homogenized in 10 volumes (vol/wt) of ice-cold 50 mM HEPES-NaOH (pH 7.4) using a Polytron disrupter (Kinematica AG, Luzern, Switzerland) and centrifuged for 30 min at 40,000 g. (4° C.). […] Protein concentration was determined by the Bradford method (Bio-Rad protein assay, Reinach, Switzerland) with bovine serum albumin as standard.
# Membranes were thawed and resuspended in binding buffer containing 20 mM HEPES-NaOH, 3 mM MgCl2, 3 mM CaCl2, 100 mM NaCl, pH 7.4. […] Radioactivity was determined by liquid scintillation spectrometry using a 96-well plate reader (TopCount, Perkin-Elmer, Downers Grove, USA).
# The inhibition curves were generated using the Prism GraphPad program (Graph Pad Software Inc, San Diego, USA). […] The mean of IC50 obtained from at least three independent experiments of selected molecules performed in duplicate were calculated.
# T2 sequence (P31424 21-1171 isoform P31424-2 limits assumed): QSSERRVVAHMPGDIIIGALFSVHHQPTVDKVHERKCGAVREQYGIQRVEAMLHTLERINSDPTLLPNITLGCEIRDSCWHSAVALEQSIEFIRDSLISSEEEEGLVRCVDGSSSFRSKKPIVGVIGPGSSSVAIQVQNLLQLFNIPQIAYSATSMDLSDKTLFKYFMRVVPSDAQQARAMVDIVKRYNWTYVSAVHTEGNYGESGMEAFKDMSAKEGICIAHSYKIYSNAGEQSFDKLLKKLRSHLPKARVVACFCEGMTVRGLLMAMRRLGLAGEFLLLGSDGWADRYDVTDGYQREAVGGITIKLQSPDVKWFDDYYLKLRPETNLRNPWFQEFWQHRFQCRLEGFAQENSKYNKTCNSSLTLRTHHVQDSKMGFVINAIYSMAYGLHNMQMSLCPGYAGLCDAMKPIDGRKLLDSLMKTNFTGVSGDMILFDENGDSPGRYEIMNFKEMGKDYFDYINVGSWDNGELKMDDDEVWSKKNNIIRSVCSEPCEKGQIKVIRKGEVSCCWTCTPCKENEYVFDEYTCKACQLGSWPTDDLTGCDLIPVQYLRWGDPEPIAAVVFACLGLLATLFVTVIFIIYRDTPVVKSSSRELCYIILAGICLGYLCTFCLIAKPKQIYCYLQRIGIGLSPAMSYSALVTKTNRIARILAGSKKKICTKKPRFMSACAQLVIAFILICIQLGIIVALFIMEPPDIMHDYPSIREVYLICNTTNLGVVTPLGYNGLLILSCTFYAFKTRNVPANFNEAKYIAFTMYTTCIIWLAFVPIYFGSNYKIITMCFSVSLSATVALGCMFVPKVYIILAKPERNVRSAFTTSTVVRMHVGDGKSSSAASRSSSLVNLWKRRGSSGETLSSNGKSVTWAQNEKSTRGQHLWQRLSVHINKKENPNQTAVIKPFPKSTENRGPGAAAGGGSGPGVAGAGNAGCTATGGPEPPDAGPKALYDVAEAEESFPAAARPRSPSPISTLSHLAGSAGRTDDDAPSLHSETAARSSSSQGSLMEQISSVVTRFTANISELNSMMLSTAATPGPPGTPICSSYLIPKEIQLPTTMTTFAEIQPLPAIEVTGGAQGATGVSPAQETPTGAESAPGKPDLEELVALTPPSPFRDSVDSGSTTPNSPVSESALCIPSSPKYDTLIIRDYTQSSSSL
# T1 sequence (P31424 21-1203): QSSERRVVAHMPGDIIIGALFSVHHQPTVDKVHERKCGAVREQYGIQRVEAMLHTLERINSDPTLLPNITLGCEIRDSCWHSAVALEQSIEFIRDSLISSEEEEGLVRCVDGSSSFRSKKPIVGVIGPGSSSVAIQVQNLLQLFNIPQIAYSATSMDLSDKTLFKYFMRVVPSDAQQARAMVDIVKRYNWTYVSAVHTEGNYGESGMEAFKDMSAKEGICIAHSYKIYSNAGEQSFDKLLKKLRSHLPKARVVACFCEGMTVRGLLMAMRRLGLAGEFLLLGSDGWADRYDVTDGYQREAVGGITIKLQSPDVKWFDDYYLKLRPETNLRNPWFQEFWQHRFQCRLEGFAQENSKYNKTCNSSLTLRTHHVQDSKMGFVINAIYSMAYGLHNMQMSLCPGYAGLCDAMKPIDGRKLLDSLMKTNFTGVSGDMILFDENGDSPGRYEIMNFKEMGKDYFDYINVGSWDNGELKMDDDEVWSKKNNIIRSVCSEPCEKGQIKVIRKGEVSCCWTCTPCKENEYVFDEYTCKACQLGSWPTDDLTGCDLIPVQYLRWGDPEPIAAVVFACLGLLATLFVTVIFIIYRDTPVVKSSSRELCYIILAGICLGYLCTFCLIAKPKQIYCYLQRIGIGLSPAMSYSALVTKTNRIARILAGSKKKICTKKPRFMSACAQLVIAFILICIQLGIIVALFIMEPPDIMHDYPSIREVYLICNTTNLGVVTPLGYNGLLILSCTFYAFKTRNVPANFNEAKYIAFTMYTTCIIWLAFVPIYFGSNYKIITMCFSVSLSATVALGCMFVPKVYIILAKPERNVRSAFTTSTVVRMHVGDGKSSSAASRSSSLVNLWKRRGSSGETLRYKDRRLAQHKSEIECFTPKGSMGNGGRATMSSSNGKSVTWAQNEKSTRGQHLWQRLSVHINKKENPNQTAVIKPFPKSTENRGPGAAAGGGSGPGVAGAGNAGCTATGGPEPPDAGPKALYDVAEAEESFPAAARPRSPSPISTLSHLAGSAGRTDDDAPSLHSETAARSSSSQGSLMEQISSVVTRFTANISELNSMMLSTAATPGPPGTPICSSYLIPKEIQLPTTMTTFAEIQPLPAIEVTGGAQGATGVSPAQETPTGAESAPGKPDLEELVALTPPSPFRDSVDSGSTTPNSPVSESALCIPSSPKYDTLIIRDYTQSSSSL
Compound,activity in rat cortical astrocytes culture in the absence of added glutamate (mGluR5 [1]),activation of rat mGluR5 receptors (rat mGluR5 receptor),IC50 (mGluR5 [2]),melting point,EC50 (rat mGluR5 receptor)
"N#Cc1cccc(C(=O)Nc2cc(-c3ccccc3)nn2-c2ccccc2)c1 [CDPPB, reference compound]",inactive,activating,–,–,–
"O=C(Nc1ccc(Cl)cc1CN1C(=O)c2ccccc2C1=O)c1ccccc1O [CPPHA, reference compound]",inactive,activating,–,–,–
"Fc1cccc(/C=N/N=C/c2cccc(F)c2)c1 [DFB, reference compound]",inactive,activating,–,–,–
"O=C(c1ccc(F)cc1)N1CCC[C@H](c2nc(-c3ccc[nH]3)no2)C1 [Example 1, (4-Fluoro-phenyl)-{(S)-3-[3-(1H-pyrrol-2-yl)-[1,2,4]oxadiazol-5-yl]-piperidin-1-yl}-methanone]",–,–,< 30000 nM,130 to 135 °C,< 1000 nM
"Cc1oncc1C(=O)N1CCCC(c2noc(-c3cc4ccccc4[nH]3)n2)C1 (stereo not shown) [Example 26, {3-[5-(1H-Indol-2-yl)-[1,2,4]oxadiazol-3-yl]-piperidin-1-yl}-(5-methyl-isoxazol-4-yl)-methanone]",–,–,–,175.6 to 177.2 °C,1000 to 10000 nM
"Cc1c[nH]c(-c2nc([C@H]3CCCN(C(=O)c4ccc(F)cc4)C3)no2)c1 [Example 27, (4-Fluoro-phenyl)-{(S)-3-[5-(4-methyl-1H-pyrrol-2-yl)-[1,2,4]oxadiazol-3-yl]-piperidin-1-yl}-methanone]",–,–,–,183 °C,< 1000 nM
"Cc1c[nH]c(-c2noc([C@H]3CCCN(C(=O)c4ccc(F)cc4)C3)n2)c1 [Example 31, (4-Fluoro-phenyl)-{(S)-3-[3-(4-methyl-1H-pyrrol-2-yl)-[1,2,4]oxadiazol-5-yl]-piperidin-1-yl}-methanone]",–,–,–,188 to 190 °C,< 1000 nM
"Cc1c[nH]c(-c2noc([C@H]3CCCN(C(=O)c4ccc(F)c(F)c4)C3)n2)c1 [Example 32, (3,4-Difluoro-phenyl)-{(S)-3-[3-(4-methyl-1H-pyrrol-2-yl)-[1,2,4]oxadiazol-5-yl]-piperidin-1-yl}-methanone]",–,–,–,166 to 167 °C,< 1000 nM
"O=C(c1ccc(F)cc1)N1CCC[C@H](c2noc(-c3cc([N+](=O)[O-])c[nH]3)n2)C1 [Example 36, (4-Fluoro-phenyl)-{(S)-3-[5-(4-nitro-1H-pyrrol-2-yl)-[1,2,4]oxadiazol-3-yl]-piperidin-1-yl}-methanone]",–,–,–,157 to 158 °C,< 1000 nM
"O=C(c1ccc(F)cc1)N1CCC[C@@H](c2nc(-c3ccc[nH]3)no2)C1 [Example 37, (4-Fluoro-phenyl)-{(R)-3-[3-(1H-pyrrol-2-yl)-[1,2,4]oxadiazol-5-yl]-piperidin-1-yl}-methanone]",–,–,–,132 to 133 °C,1000 to 10000 nM
"O=C(c1ccc(F)cc1)N1CCCC(F)(c2nc(-c3ccc[nH]3)no2)C1 (stereo not shown) [Example 47, (4-Fluoro-phenyl)-{3-fluoro-3-[3-(1H-pyrrol-2-yl)-[1,2,4]oxadiazol-5-yl]-piperidin-1-yl}-methanone]",–,–,–,114.8 to 118 °C,1000 to 10000 nM
"O=C(c1ccc(F)cc1)N1CCC[C@H](c2nc(-c3cc(F)c[nH]3)no2)C1 [Example 50, (4-Fluoro-phenyl)-{(S)-3-[3-(4-fluoro-1H-pyrrol-2-yl)-[1,2,4]oxadiazol-5-yl]-piperidin-1-yl}-methanone]",–,–,–,146.5 to 147.2 °C,< 1000 nM
"O=C(c1ccc(F)c(F)c1)N1CCC[C@H](c2nc(-c3cc(F)c[nH]3)no2)C1 [Example 51, (3,4-Difluoro-phenyl)-{(S)-3-[3-(4-fluoro-1H-pyrrol-2-yl)-[1,2,4]oxadiazol-5-yl]-piperidin-1-yl}-methanone]",–,–,–,147.5 to 148.2 °C,< 1000 nM
"N#Cc1c[nH]c(-c2nc([C@H]3CCCN(C(=O)c4ccc(F)cc4)C3)no2)c1 [Example 72, (4-Fluoro-phenyl)-{(S)-3-[5-(4-cyano-1H-pyrrol-2-yl)-[1,2,4]oxadiazol-3-yl]-piperidin-1-yl}-methanone]",–,–,–,204.8 to 205.6 °C,1000 to 10000 nM
"O=C(c1ccc(F)cc1)N1CCC[C@H](c2noc(-c3cc(C(F)(F)F)c[nH]3)n2)C1 [Example 76, (4-Fluoro-phenyl)-{(S)-3-[5-(4-trifluoromethyl-1H-pyrrol-2-yl)-[1,2,4]oxadiazol-3-yl]-piperidin-1-yl}-methanone]",–,–,–,183.5 °C,> 10000 nM
